Results published in US12150927B2, “Use of cannabidiolic acid in the treatment of autism spectrum disorder and associated disorders” (GW Research Limited, priority 2016, dated 2024).
Several values for one entry are separate records, joined by “and”; a condition that tells them apart may be missing. Equal entries are not always repeated.

Key:
[1] = tested on: MeCP2 KO and WT mice; assay: Survival, mouse model of Rett syndrome; format: in vivo
Description: CBDA was administered daily at the dose of 2 or 20 mg/kg i.p. starting from PND 28 and the following signs were scored every other day: hindlimb clasping (indication of motor imbalance), tremor, gait (measure of coordination), breathing, mobility and general condition.
The CBDA was dissolved in ethanol, cremophor and saline (1:1:18). Starting from PND 28, mice received a daily intraperitoneal injection of CBDA (or vehicle) at the dose of 2 or 20 mg/kg. Animals were then scored every other day to evaluate the effect of CBDA treatment on motor symptoms (hindlimb clasping, gait, mobility) as well as neurological signs and general conditions (breathing abnormalities, tremors and general condition) present in MeCP2 knockout (KO) mice.

[2] = tested on: Fmr1 KO mice; assay: Novel object recognition task, mouse model of fragile X syndrome; format: in vivo
Description: Fmr1 KO mice and wild type mice were obtained and housed four per cage in a temperature of 21° C.±1° C. and humidity of 55%±10% controlled environment. Food and water were available ad libitum. All experiments were performed during the light phase of a 12 hour light/dark cycle (08:00 to 20:00). Animals were handled for one week before the start of experiments. All behavioural tests were performed by researchers blind to the different experimental groups.
On day one mice were habituated for 10 minutes to the empty V-maze in which the task was to be performed. On the second day the mice went back to the maze for 10 minutes which contained two identical objects at the end of each corridor in the V-maze.
The following day the mice were placed again in the same maze for a further 10 minutes but one of the familiar objects was replaced for a novel object. The total time spent exploring the novel and familiar object was recorded. A discrimination index was calculated as the difference between the time spent exploring the novel and familiar object divided by the total time exploring the two objects. A high discrimination index (0.3-0.5) is considered to reflect memory retention for the familiar object.
Adult mice […] were treated either acutely with one dose of 20 mg/kg CBDA on PND 21 for 7 consecutive days. Mice were evaluated in the novel object recognition task after the first and sixth day of CBDA administration.

[3] = tested on: VPA-exposed offspring; assay: Locomotor activity and repetitive behaviours (self-grooming) in activity cage, rat VPA model; format: in vivo, Sprague-Dawley rats; conditions: CBDA 20 mg/kg/day i.p. PND 34-56
Description: Pregnant Sprague-Dawley rats (Charles River, Calco, Italy), received a single intraperitoneal injection of 500 mg/kg sodium valproate on the 12.5 day after conception, and control females were injected with physiological saline at the same time. Sodium valproate (Sigma Aldrich, Milan, IT) was dissolved in saline at a concentration of 250 mg/ml.
CBDA was dissolved in ethanol, cremophor and saline (1:1:18). Symptomatic treatment with CBDA at doses of 2 and 20 mg/kg/day i.p. was performed starting from PND 34 (early adolescence) till 56 (early adulthood), both in male and female offspring of dams injected with VPA 500 mg/kg (or vehicle) on day 12.5 after conception. At PND 56, a series of behavioural tests was performed in order to assess the effect of chronic CBDA on sociability, social novelty, short-term memory, locomotion and stereotyped/repetitive behaviours.
Locomotor activity and repetitive behaviours: Locomotor activity was recorded in an activity cage for 20 minutes with the aid of Anymaze program (Ugo Basile, Italy). In this period, repetitive behaviours (self-grooming and digging) were measured by an observer blind to the treatment group.

[4] = tested on: MeCP2 KO mice; assay: Novel Object Recognition (NOR) test, short- and long-term memory, mouse model of Rett syndrome; format: in vivo
Description: Furthermore, the efficacy of CBDA in reverting/attenuating the short- and long-term memory deficits present in these mice was evaluated. The Novel Object Recognition (NOR) test was performed before the starting of the treatment Post Natal Day 28 (PND 28), at PND 41 when the first motor symptoms appear and at PND 56 and 66 when the disease is fully manifested.
At PND 28, 41, 56 and 66 the effect of CBDA on short- and long-term memory deficits was investigated through the Novel Object Recognition (NOR) test.
The experiment was performed as previously described (Zamberletti E. et al. 2014 and Kruk-Stomka M. et al. 2014).
The experimental apparatus used for the Novel Object Recognition test was an open-field box (43×43×32 cm) made of Plexiglas, placed in a dimly illuminated room. Animals performed each test individually.
Briefly, each animal was placed in the arena and allowed to explore two identical previously unseen objects for 10 minutes (familiarization phase). After an inter-trial interval of 30 minutes and 24 hours one of the two familiar objects was replaced by a novel, previously unseen object and mice were returned to the arena for the 10-minute test phase.
During the test phase the time spent exploring the familiar object (Ef) and the new object (En) was recorded separately by two observers blind to the groups and the discrimination index was calculated as follows: [(En−Ef)/(En+Ef)]×100.

[5] = tested on: Ube3am-/p+ (AS) mice; assay: Novel object recognition, mouse model of Angelman syndrome; format: in vivo; conditions: CBDA 20 mg/kg i.p., age 7-8 weeks, vs AS vehicle
Description: Heterozygous mice with maternal deficiency of Ube3A (Ube3am−/p+) and wild type (Ube3am+/p+) were purchased from The Jackson Laboratory (Jackson code: B6.129S7-Ube3a tm1Alb/J) and maintained in a C57BL/6 background.
Drugs were dissolved in 1:1:18 ethanol:cremophor:0.9% saline, for intraperitoneal (i.p.) administration. Drug treatment was performed daily for 35 days. CBDA was administered at 20 mg/kg.
Novel Object Recognition: The novel object recognition assesses recognition memory in mice. The experiment started with the habituation period, during which mice were allowed to freely explore for 1 hour the apparatus which consists of a rectangular open box (40×30×30 cm width×length×height) made of grey polyvinyl chloride (PVC) illuminated by a dim light. The day after each mouse was allowed to explore two identical objects positioned in the back left and right corners for 5 min (acquisition). A video camera recorded the time spent on exploration of each object. […] The behaviour of mice was analyzed by an observer blind to the treatment. Data are expressed as percentage of recognition index (RI %), which was calculated as the percentage of the time spent exploring the novel object/time spent exploring the novel object+time spent exploring the familiar object×100.

## C=C(C)[C@@H]1CCC(C)=C[C@H]1c1c(O)cc(CCCCC)c(C(=O)O)c1O [CBDA, Cannabidiolic acid]
[1]; MeCP2 KO mice, chronic CBDA 20 mg/kg i.p., PND 67 (vehicle KO 57.14%), FIG. 6
  survival rate: 85.14% and 85%
[1]; WT mice treated with CBDA (2 and 20 mg/kg i.p. daily)
  lethality: No lethality
[2]; Fmr1 KO mice treated with CBDA over 7 days
  discrimination index level: 0.32
[2]; acute treatment, CBDA 20 mg/kg, Fmr1 KO mice vs KO vehicle, FIG. 3
  discrimination index: increase the discrimination index slightly over that of the knockout mice administered vehicle, however this was not significant
[2]; chronic treatment, once daily for 7 days, CBDA 20 mg/kg, Fmr1 KO mice, FIG. 4
  discrimination index (effect vs vehicle): statistically significant increase in the discrimination index
[3]; VPA offspring, FIG. 2B
  locomotor activity: able to normalize this
[3]; VPA-exposed offspring, FIG. 2A
  repetitive behaviours (time spent in compulsive self-grooming): significantly normalize this behaviour
[4]; MeCP2 KO mice, CBDA 2 and 20 mg/kg i.p., each time point (PND 41, 56, 66), 30 min inter-trial interval, FIG. 10
  short-term memory in the NOR test: reverted the cognitive impairment in short-term memory
[4]; MeCP2 KO mice, both doses of CBDA (2 and 20 mg/kg i.p.), 24 hours inter-trial interval, FIG. 11
  long-term memory in the NOR test: counteract the cognitive impairment in long-term memory
[4]; WT littermates, CBDA 2 and 20 mg/kg i.p., FIG. 10
  short-term recognition memory in the NOR test: without affecting recognition memory
[4]; WT littermates, both doses of CBDA, FIG. 11
  long-term recognition memory in the NOR test: without affecting recognition memory
[5]
  discrimination index: increased the discrimination index
